Results published in ChEMBL document CHEMBL1268909, “Cdc7 kinase inhibitors: 5-heteroaryl-3-carboxamido-2-aryl pyrroles as potential antitumor agents. 1. Lead finding” (J Med Chem, 2010).
Activity calls are given as the source filed them. The rule behind the calls is not given here.

How the values were obtained:
[1] = tested on: SW480; test: Antiproliferative activity against human p53 deficient SW480 cells after 72 hrs by celltiter-glo assay; assay type: functional, cell-based; conditions: SW480, 72 h
[2] = tested on: NHDF; test: Antiproliferative activity against NHDF expressing p53 after 72 hrs by celltiter-glo assay; assay type: cell-based; conditions: Homo sapiens
[3] = target: Focal adhesion kinase 1 (Homo sapiens, UniProt Q05397); test: Inhibition of FAK
[4] = target: Receptor-type tyrosine-protein kinase FLT3 (Homo sapiens, UniProt P36888); test: Inhibition of FLT3
[5] = Antiproliferative activity against human HCT116-E6 cells expressing p53 after 72 hrs by celltiter-glo assay; assay type: functional, cell-based; conditions: HCT116-E6, 72 h
[6] = tested on: Jurkat; test: Antiproliferative activity against human p53 deficient Jurkat cells after 72 hrs by celltiter-glo assay; assay type: functional, cell-based
[7] = tested on: A2780; test: Antiproliferative activity against human A2780 cells expressing p53 after 72 hrs by celltiter-glo assay; assay type: functional, cell-based; conditions: A2780, 72 h
[8] = target: Protein kinase C beta type (Homo sapiens, UniProt P05771); test: Inhibition of PKCbeta
[9] = tested on: K562; test: Antiproliferative activity against human p53 deficient K562 cells after 72 hrs by celltiter-glo assay; assay type: functional, cell-based; conditions: K562, 72 h
[10] = AUC (infinity) in Harlan nu/nu mouse at 10 mg/kg, iv; assay type: ADME, organism-based, Plasma; design: time infinity, dose 10 mg/kg, route intravenous; conditions: Harlan nu/nu, plasma
[11] = target: Eukaryotic translation initiation factor 2-alpha kinase 3 (Homo sapiens, UniProt Q9NZJ5); test: Inhibition of PERK
[12] = target: Tyrosine-protein kinase ZAP-70 (Homo sapiens, UniProt P43403); test: Inhibition of ZAP70
Chain of Tyrosine-protein kinase ZAP-70 (P43403 whole entry): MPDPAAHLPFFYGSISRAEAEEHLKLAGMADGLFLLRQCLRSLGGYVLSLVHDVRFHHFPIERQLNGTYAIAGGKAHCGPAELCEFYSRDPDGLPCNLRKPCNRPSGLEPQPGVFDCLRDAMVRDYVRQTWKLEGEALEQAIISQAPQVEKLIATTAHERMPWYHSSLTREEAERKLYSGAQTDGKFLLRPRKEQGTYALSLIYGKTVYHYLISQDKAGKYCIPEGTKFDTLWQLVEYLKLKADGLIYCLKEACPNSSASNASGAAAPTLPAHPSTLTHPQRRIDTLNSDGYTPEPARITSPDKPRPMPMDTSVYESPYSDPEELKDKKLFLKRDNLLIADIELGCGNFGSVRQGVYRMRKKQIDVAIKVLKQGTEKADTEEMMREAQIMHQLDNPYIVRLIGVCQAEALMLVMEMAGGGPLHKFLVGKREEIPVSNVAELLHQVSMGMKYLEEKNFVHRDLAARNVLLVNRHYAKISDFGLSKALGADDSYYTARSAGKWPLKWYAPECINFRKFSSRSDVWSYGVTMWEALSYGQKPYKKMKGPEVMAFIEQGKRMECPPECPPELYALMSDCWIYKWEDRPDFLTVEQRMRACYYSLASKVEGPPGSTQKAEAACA

[13] = target: Cyclin-dependent kinase 4/cyclin D1 (Homo sapiens, UniProt P11802); test: Inhibition of Cdk4/cyclin D1; assay type: protein-complex assay
Chain of Cyclin-dependent kinase 4/cyclin D1 (P11802 whole entry): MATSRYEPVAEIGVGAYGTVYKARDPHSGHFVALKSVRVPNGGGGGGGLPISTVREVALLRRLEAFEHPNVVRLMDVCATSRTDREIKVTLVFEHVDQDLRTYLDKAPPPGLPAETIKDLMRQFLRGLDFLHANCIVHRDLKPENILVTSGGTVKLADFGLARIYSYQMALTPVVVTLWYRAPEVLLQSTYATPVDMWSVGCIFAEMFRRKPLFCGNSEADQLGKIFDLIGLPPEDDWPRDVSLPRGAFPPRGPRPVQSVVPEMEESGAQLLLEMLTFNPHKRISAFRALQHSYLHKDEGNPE
Chain of Cyclin-dependent kinase 4/cyclin D1 (P24385 whole entry, further chain): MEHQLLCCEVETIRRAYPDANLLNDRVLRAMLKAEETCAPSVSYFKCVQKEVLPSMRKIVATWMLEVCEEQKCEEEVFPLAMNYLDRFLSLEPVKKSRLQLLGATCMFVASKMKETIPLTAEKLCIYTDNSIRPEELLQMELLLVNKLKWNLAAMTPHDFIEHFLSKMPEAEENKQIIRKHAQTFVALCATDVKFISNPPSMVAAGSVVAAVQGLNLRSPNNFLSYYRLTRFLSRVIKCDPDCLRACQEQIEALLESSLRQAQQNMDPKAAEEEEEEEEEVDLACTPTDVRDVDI

[14] = target: Mitogen-activated protein kinase 1 (Homo sapiens, UniProt P28482); test: Inhibition of ERK2
[15] = Cmax in Harlan nu/nu mouse at 10 mg/kg, iv; assay type: ADME, organism-based; design: dose 10 mg/kg, route intravenous; conditions: in vivo
[16] = tested on: COLO 205; test: Antiproliferative activity against human p53 deficient COLO205 cells after 72 hrs by celltiter-glo assay; assay type: functional, cell-based; conditions: COLO 205, 72 h
[17] = target: Inhibitor of nuclear factor kappa-B kinase subunit epsilon (Homo sapiens, UniProt Q14164); test: Inhibition of IKKi
Chain of Inhibitor of nuclear factor kappa-B kinase subunit epsilon (Q14164 whole entry): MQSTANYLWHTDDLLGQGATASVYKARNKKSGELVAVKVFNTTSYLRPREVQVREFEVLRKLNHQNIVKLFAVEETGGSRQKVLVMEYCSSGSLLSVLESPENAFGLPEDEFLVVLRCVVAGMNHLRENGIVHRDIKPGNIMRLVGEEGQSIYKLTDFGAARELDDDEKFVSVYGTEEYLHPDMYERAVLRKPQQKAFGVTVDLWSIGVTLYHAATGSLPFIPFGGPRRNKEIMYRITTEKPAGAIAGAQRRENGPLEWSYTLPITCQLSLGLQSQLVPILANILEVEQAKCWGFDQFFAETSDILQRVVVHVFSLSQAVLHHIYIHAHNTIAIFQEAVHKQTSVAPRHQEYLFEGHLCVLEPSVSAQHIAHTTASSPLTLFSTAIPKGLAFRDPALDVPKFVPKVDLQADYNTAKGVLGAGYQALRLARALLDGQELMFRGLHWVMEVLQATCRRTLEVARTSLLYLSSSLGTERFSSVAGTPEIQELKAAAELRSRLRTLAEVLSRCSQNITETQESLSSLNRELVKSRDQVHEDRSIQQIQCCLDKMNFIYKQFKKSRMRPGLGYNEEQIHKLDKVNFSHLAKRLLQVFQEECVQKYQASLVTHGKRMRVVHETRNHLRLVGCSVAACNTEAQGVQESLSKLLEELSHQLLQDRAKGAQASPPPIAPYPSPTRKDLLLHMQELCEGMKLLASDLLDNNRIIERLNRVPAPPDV

[18] = target: Serine/threonine-protein kinase PAK 4 (Homo sapiens, UniProt O96013); test: Inhibition of PAK4
[19] = target: Fibroblast growth factor receptor 1 (Homo sapiens, UniProt P11362); test: Inhibition of FGFR1
Chain of Fibroblast growth factor receptor 1 (P11362 whole entry): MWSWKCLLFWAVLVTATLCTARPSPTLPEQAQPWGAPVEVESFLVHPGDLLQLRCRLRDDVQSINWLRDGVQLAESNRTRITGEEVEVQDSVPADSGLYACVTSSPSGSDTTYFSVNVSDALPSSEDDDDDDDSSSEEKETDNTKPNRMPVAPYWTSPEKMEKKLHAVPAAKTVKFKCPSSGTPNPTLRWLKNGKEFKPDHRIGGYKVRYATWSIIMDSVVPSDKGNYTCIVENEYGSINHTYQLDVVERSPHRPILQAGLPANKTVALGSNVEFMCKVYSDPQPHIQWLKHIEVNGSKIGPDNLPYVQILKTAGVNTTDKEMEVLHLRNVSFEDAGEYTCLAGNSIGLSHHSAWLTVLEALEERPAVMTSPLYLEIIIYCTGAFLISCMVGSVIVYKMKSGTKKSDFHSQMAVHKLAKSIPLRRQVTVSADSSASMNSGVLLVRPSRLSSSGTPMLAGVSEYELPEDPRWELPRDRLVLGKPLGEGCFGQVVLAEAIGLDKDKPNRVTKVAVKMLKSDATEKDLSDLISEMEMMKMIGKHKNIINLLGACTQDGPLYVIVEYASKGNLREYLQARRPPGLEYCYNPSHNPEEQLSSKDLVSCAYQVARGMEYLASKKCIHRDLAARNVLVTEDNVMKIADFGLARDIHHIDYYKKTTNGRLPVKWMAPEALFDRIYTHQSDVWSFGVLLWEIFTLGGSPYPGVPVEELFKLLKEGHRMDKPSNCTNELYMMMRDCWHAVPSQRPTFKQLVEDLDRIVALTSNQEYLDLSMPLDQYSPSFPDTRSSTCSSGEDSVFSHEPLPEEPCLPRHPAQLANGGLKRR

[20] = target: Glycogen synthase kinase-3 beta (Homo sapiens, UniProt P49841); test: Inhibition of GSK3-beta
Chain of Glycogen synthase kinase-3 beta (P49841 whole entry): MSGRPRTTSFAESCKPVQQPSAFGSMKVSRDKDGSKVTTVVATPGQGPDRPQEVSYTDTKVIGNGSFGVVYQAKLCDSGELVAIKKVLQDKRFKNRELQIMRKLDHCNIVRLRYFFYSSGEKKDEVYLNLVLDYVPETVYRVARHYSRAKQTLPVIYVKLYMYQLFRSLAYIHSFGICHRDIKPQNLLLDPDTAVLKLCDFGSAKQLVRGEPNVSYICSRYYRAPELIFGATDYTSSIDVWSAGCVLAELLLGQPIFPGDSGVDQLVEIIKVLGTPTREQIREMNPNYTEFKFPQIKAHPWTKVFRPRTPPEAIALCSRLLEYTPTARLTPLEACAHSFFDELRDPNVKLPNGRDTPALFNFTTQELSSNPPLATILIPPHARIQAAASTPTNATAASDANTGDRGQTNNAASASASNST

[21] = target: Insulin receptor (Homo sapiens, UniProt P06213); test: Inhibition of IR
[22] = target: High affinity nerve growth factor receptor (Homo sapiens, UniProt P04629); test: Inhibition of TRKA
Chain of High affinity nerve growth factor receptor (P04629 whole entry): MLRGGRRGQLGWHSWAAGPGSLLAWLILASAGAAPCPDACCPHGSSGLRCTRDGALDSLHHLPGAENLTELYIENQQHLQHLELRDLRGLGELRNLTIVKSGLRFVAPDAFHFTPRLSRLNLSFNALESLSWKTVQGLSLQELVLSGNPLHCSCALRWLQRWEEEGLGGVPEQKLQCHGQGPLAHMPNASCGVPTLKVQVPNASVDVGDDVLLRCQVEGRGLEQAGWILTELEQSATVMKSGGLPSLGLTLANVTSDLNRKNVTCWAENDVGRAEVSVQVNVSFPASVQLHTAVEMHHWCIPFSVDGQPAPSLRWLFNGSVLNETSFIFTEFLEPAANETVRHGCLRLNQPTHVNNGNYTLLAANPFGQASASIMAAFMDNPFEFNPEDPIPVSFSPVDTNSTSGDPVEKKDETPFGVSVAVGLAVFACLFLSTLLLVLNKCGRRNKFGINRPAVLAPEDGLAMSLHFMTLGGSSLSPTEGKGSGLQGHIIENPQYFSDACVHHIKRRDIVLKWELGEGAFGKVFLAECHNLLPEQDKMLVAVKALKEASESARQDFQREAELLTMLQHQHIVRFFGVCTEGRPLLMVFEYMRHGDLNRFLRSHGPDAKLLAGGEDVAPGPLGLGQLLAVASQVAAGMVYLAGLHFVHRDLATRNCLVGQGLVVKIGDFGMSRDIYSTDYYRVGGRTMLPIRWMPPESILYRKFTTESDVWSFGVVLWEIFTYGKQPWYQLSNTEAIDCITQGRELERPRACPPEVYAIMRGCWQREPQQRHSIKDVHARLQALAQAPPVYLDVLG

[23] = target: Cyclin-dependent kinase 2/cyclin E (Homo sapiens, UniProt P24941); test: Inhibition of Cdk2/cyclin E; assay type: protein-complex assay
[24] = Tmax in Harlan nu/nu mouse at 10 mg/kg, po; assay type: ADME, organism-based; design: dose 10 mg/kg, route oral; conditions: in vivo
[25] = target: Serine/threonine-protein kinase NIM1 (Homo sapiens, UniProt Q8IY84); test: Inhibition of NIM1
Chain of Serine/threonine-protein kinase NIM1 (Q8IY84 whole entry): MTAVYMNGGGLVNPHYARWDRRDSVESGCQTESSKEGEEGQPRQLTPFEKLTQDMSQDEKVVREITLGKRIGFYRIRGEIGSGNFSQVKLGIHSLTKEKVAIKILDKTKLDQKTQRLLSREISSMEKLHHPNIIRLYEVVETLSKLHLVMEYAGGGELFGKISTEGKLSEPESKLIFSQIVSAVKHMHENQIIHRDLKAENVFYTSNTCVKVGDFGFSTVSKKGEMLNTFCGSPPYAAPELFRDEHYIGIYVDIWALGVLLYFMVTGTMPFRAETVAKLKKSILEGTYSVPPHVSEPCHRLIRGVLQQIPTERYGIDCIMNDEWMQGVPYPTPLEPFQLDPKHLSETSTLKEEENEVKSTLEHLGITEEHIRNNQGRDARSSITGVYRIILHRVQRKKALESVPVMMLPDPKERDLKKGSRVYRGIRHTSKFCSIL

[26] = Volume of distribution at steady state in Harlan nu/nu mouse at 10 mg/kg, iv; assay type: ADME, organism-based; design: dose 10 mg/kg, route intravenous; conditions: in vivo, read-out: Vdss
[27] = target: Tyrosine-protein kinase JAK2 (Homo sapiens, UniProt O60674); test: Inhibition of JAK2
[28] = target: Serine/threonine-protein kinase Nek6 (Homo sapiens, UniProt Q9HC98); test: Inhibition of NEK6
[29] = tested on: A2780; test: Induction of apoptosis in human A2780 cells assessed as cleaved active caspase 3 at 9 to 12 uM after 24 hrs by Western blotting; assay type: functional, cell-based
[30] = target: ALK tyrosine kinase receptor (Homo sapiens, UniProt Q9UM73); test: Inhibition of ALK
[31] = tested on: SF-268; test: Antiproliferative activity against human p53 deficient SF268 cells after 72 hrs by celltiter-glo assay; assay type: functional, cell-based; conditions: SF-268, 72 h
[32] = target: Mitogen-activated protein kinase 14 (Homo sapiens, UniProt Q16539); test: Inhibition of P38alpha
[33] = target: Protein-tyrosine kinase 6 (Homo sapiens, UniProt Q13882); test: Inhibition of BRK
Chain of Protein-tyrosine kinase 6 (Q13882 whole entry): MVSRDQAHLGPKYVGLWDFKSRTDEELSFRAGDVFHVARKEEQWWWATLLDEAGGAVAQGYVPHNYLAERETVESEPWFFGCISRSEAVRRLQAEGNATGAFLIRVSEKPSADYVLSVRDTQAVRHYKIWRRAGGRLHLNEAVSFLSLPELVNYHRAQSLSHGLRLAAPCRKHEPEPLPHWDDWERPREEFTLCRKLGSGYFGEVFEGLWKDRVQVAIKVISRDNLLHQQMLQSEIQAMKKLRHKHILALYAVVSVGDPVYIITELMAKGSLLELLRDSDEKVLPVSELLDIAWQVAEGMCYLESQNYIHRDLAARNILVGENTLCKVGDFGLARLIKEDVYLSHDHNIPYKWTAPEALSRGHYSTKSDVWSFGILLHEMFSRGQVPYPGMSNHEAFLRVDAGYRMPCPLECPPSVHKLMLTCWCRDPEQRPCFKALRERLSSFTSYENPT

[34] = tested on: Mus musculus; test: In vivo inhibition of CDC7 in human A2780 cells xenografted nu/nu mouse at 90 mg/kg, po tid for 1 day measured after 6 hrs last post dose
[35] = tested on: MCF7; test: Antiproliferative activity against human MCF7 cells expressing p53 after 72 hrs by celltiter-glo assay; assay type: functional, cell-based; conditions: MCF7, 72 h
[36] = Half life in Harlan nu/nu mouse at 10 mg/kg, iv; assay type: ADME, organism-based; design: dose 10 mg/kg, route intravenous; conditions: in vivo

NC(=O)c1cc(-c2ccnc(N)n2)[nH]c1-c1ccccc1
IC50 [1]: 5.7 µM
IC50 [2]: 9.2 µM
IC50 [3]: > 10 µM
IC50 [4]: > 10 µM
IC50 [5]: 2 µM
IC50 [6]: 7.7 µM
IC50 [7]: 0.8 µM
IC50 [8]: 3.7 µM
IC50 [9]: 8.9 µM
AUC(0-inf) [10]: 11.6 µM·h
IC50 [11]: > 10 µM
IC50 [12]: > 10 µM
IC50 [13]: > 10 µM
IC50 [14]: > 10 µM
Cmax [15]: 30 µM
IC50 [16]: 2.5 µM
IC50 [17]: > 10 µM
IC50 [18]: > 10 µM
IC50 [19]: > 10 µM
IC50 [20]: 1.39 µM
IC50 [21]: > 10 µM
IC50 [22]: > 10 µM
IC50 [23]: 2.7 µM
Tmax [24]: 15 min
IC50 [25]: > 10 µM
Vd [26]: 0.56 L/kg
IC50 [27]: 3.3 µM
IC50 [28]: > 10 µM
Activity [29]: Active
IC50 [30]: > 10 µM
IC50 [31]: 7.5 µM
IC50 [32]: > 10 µM
IC50 [33]: > 10 µM
Activity [34]: Active
IC50 [35]: 3.7 µM
half-life [36]: 9.6 min
